Test results published in patent publication US8268809B2, “Kinase inhibitors for preventing or treating pathogen infection and method of use thereof” (priority 2006, dated 2012).

Legend:
[1] = system: gamma-herpes variant that expresses GFP under a CMV promoter (GHV-Bac-GFP); experiment: Herpes virus assay: GHV-Bac-GFP infection of 3T3 monolayers, cytopathic effect and GFP spread; type: cell-based, gamma-herpes virus; settings: for Herpes phenotype group / HERPES: 3T3 cells, GHV-Bac-GFP; for Herpes phenotype group: 10 μM, after 7 days; for HERPES: compound 10 μM, 7 days
Method: All herpes viruses share the property of establishing life-long infection in their host. […] To determine whether tyrosine kinases participate in gamma-herpes virus infections, confluent monolayers of 3T3 cells were exposed and plated in optical 96 well dishes to the library of compounds of the present invention described herein for 1 hour. The cells were then infected with a gamma-herpes variant that expresses GFP under a CMV promoter (GHV-Bac-GFP), and replaced the compounds of the present invention at final concentration of 10 μM.

vaccinia virus [2] = type: cell-based
vaccinia virus [3] = settings: background statement, Reeves et al. 2005; cited from earlier work
vaccinia virus [4] = type: cell-based; remark: listed apart in the source

Structure (SMILES): CC(=O)Nc1ccc(-c2ccc3c(-c4ccc(Br)cc4F)n[nH]c3n2)cc1 [APcK-21]
- Herpes phenotype group [1]: (iii)
- HERPES [1]: DE- LAYED CPE

Structure (SMILES): CC(=O)Nc1ccc(-c2ccc3c(-c4ccc(Cl)c(Cl)c4)n[nH]c3n2)cc1 [APcK-25]
- Herpes phenotype group [1]: (iii)
- HERPES [1]: DE- LAYED CPE

Structure (SMILES): O=C(c1ccccc1)c1ccc(-c2ccc3c(-c4ccc(F)cc4)n[nH]c3n2)cc1 [APcK-36]
- Herpes phenotype group [1]: (iii)
- HERPES [1]: DE- LAYED CPE

Structure (SMILES): CC(=O)Nc1cccc(-c2ccc3c(-c4ccc(Cl)c(Cl)c4)n[nH]c3n2)c1 [APcK-42]
- Herpes phenotype group [1]: (iii)
- HERPES [1]: DE- LAYED CPE

Structure (SMILES): CC(=O)Nc1cccc(-c2ccc3c(-c4ccc(Br)c(F)c4)n[nH]c3n2)c1 [APcK-43]
- Class category of infected monolayers in plaque assay (vaccinia virus [2]): Class III
- Effects in Vaccinia assays (vaccinia virus [2]): had effects
- VACCINIA PLAQUE ASSAY 2 (vaccinia virus [2]): NO PLAQUES
- VACCINIA Plaque Assay (vaccinia virus [2]): NO PLAQUES
- Effects in Herpes assay [1]: had effects
- HERPES [1]: DE- LAYED CPE

Structure (SMILES): CCOC(=O)c1ccc(-c2ccc3c(-c4ccc(Br)cc4F)n[nH]c3n2)cc1 [APcK-50]
- Herpes phenotype group [1]: (iii)
- HERPES [1]: DE- LAYED CPE

Structure (SMILES): CCOC(=O)c1ccc(-c2ccc3c(-c4ccc(C)c(F)c4)n[nH]c3n2)cc1 [APcK-51]
- Herpes phenotype group [1]: (iii)
- HERPES [1]: DE- LAYED CPE

Structure (SMILES): CCOC(=O)c1ccc(-c2ccc3c(-c4ccc(F)cc4)n[nH]c3n2)cc1 [APcK-53]
- Herpes phenotype group [1]: (iii)
- HERPES [1]: DE- LAYED CPE

Structure (SMILES): CC(=O)Nc1cccc(-c2ccc3c(-c4ccc(F)cc4)n[nH]c3n2)c1 [APcK-103]
- Class category of infected monolayers in plaque assay (vaccinia virus [2]): Class III
- Effects in Vaccinia assays (vaccinia virus [2]): had effects
- VACCINIA PLAQUE ASSAY 2 (vaccinia virus [2]): NO PLAQUES
- VACCINIA Plaque Assay (vaccinia virus [2]): NO PLAQUES
- Effects in Herpes assay [1]: had effects
- Herpes phenotype group [1]: (iii)
- HERPES [1]: DE- LAYED CPE

Structure (SMILES): Cc1ccc(NC(=O)c2ccc(CN3CCOCC3)cc2)cc1Nc1nccc(-c2cccnc2)n1 [CGP51148 WBZ-4]
- Herpes phenotype group [1]: (iii)
- HERPES [1]: DE- LAYED CPE

Structure (SMILES): Cc1ccc(NC(=O)c2ccc(CN3CCN(C)CC3)cc2)cc1Nc1nccc(-c2cccnc2)n1 [CGP-2, reference compound]
- Herpes phenotype group [1]: (ii)
- HERPES [1]: ENTRY OR EGRESS INHIB- ITOR
- Plaque phenotype of known Abl-/Src-family kinase inhibitors (vaccinia virus [3]): somewhat reduced plaque size and loss of comets

Structure (SMILES): COc1ccccc1NS(=O)(=O)c1cccc(Nc2cc(-c3ccc(Cl)cc3)ncn2)c1 [Eph2_wbz 115]
- HERPES [1]: DE- LAYED CPE

Structure (SMILES): COc1ccccc1Nc1cc(-c2ccc([N+](=O)[O-])cc2)ncn1 [Eph2_wbz 203]
- Actin protein tails (vaccinia virus [4]): wild-type actin protein tails
- Class category of infected monolayers in plaque assay (vaccinia virus [2]): Class III
- Plaque phenotype due to drug treatment (FIGS. 1, 2, 4) (vaccinia virus [2]): small plaques with comets
- VACCINIA PLAQUE ASSAY 2 (vaccinia virus [2]): SMALL PLAQUES
- VACCINIA Plaque Assay (vaccinia virus [2]): SMALL PLAQUES, STILL SEE COMETS

Structure (SMILES): Brc1cnc2c(Nc3ccccc3)nccn12 [LG2-55]
- Effects in Vaccinia assays (vaccinia virus [2]): had effects
- VACCINIA Plaque Assay (vaccinia virus [2]): PINPOINT PLAQUES
- Effects in Herpes assay [1]: had effects
- Herpes phenotype group [1]: (iii)
- HERPES [1]: DE- LAYED CPE

Structure (SMILES): Nc1cccc(-c2ccc3nnc(-c4ccco4)n3n2)c1 [LG2-71]
- Class category of infected monolayers in plaque assay (vaccinia virus [2]): Class III
- Effects in Vaccinia assays (vaccinia virus [2]): had effects
- Plaque phenotype due to drug treatment (FIGS. 1, 2, 4) (vaccinia virus [2]): small plaques with comets
- VACCINIA PLAQUE ASSAY 2 (vaccinia virus [2]): PINPOINTS
- VACCINIA Plaque Assay (vaccinia virus [2]): SMALL PLAQUES, WITH COMETS
- Effects in Herpes assay [1]: had effects
- Herpes phenotype group [1]: (ii)
- HERPES [1]: ENTRY OR EGRESS INHIB- ITOR

Structure (SMILES): Brc1cnc2c(Nc3ccc(N4CCOCC4)cc3)nccn12 [LG2-77]
- Herpes phenotype group [1]: (iii)
- HERPES [1]: DE- LAYED CPE

Structure (SMILES): CC(=O)c1cccc(-c2cnc3c(Nc4ccc(N5CCOCC5)cc4)nccn23)c1 [LG2-81]
- Herpes phenotype group [1]: (iii)
- HERPES [1]: DE- LAYED CPE

Structure (SMILES): Cc1ccc(NC(=O)c2ccc(CN3CCN(Cc4ccc(F)cc4)CC3)cc2)cc1Nc1nccc(-c2cccnc2)n1 [STI-F]
- Actin protein tails (vaccinia virus [4]): few actin tails
- Class category of infected monolayers in plaque assay (vaccinia virus [2]): Class III
- VACCINIA PLAQUE ASSAY 2 (vaccinia virus [2]): NO PLAQUES
- VACCINIA Plaque Assay (vaccinia virus [2]): PINPOINT PLAQUES

Structure (SMILES): Cc1ccc(NC(=O)c2ccc(CN3CCN(C)CC3)cc2)cc1Nc1nccc(-c2cncc(-c3ccncc3)c2)n1 [StiAF3-iAR]
- Herpes phenotype group [1]: (ii)
- HERPES [1]: ENTRY OR EGRESS INHIB- ITOR

Structure (SMILES): Cc1ccc(NC(=O)c2ccc(CN3CCN(C)CC3)cc2)cc1Nc1nccc(-c2cncc(-c3ccncc3)c2)n1 [WBZ-6]
- HERPES [1]: DE- LAYED CPE
